Legend:
Type in all cases: in vivo
Hypoestes = experiment: Systemic application through contact with the above-ground parts (half of plant treated); settings: potted, only one half sprayed, 1 g benzyl alcohol (50 L/Ha) in 8 g total (400 L/Ha)
Procedure: (§1) Assays were carried out on different plants by treatment on a fraction of the above-ground parts.
(§2) The assays were carried out on potted plants.
(§3) The systemic action was evaluated on several types of plants by treatment on a fraction of its above-ground parts.
(§4) The application of the product is carried out with a trigger spray bottle which makes it possible to spray 1 g of product per spraying, as microdroplets.
(§5) The treated plants are sprinkled on only one half, with different quantities of water comprising different quantities of pure benzyl alcohol (PanReac AppliChem—ITW Reagents). The untreated (control) plants are sprinkled with the same total quantity, but of water only.
(§6) The collapsing of the plant, the colour intensity and the diameter of the plant were measured as indicated in Example 1. The systemic effectiveness time was also measured in the following manner: • Systemic effectiveness time: 50% of the plant is initially treated with the product. The time necessary to see the first effects (systemically) appear on the part not treated (systemically) is determined.

Grass [1] = experiment: as above; settings: potted, only one half sprayed, 16 g benzyl alcohol (800 L/Ha) in 20 g total (1000 L/Ha)
Procedure: as §1, §2, §3, §4, §5, §6

White petunia = experiment: as above; settings: potted, only one half sprayed, 10 g benzyl alcohol (500 L/Ha) in 16 g total (800 L/Ha)
Procedure: as §1, §2, §3, §4, §5, §6

Carnation = experiment: as above; settings: potted, only one half sprayed, 4 g benzyl alcohol (200 L/Ha) in 4 g total (200 L/Ha)
Procedure: as §1, §2, §3, §4, §5, §6

Osteospermum = experiment: as above; settings: potted, only one half sprayed, 2 g benzyl alcohol (100 L/Ha) in 2 g total (100 L/Ha)
Procedure: as §1, §2, §3, §4, §5, §6

Horned pansy = experiment: as above; settings: potted, only one half sprayed, 0.1 g benzyl alcohol (5 L/Ha) in 12 g total (600 L/Ha)
Procedure: as §1, §2, §3, §4, §5, §6

Couch grass = experiment: Preventative herbicide activity by sprinkling of the soil; design: key to Plants sprouted despite the preventative treatment: yes: the areas where the plants have sprouted despite the preventative treatment; no: the areas where the preventative treatment made it possible to prevent the sprouting of the identified plants; settings: for Plants sprouted despite the preventative treatment: soil sprinkling
Procedure: (§7) Areas identified as each year showing the presence of couch grass, grass, bindweeds and thistles were treated preventatively. […] The results are reported in Table 6 below, in which the note “yes” indicates the areas where the plants have sprouted despite the preventative treatment, and the note “no” indicates the areas where the preventative treatment made it possible to prevent the sprouting of the identified plants.

Thistle = experiment: as above; design: key to Plants sprouted despite the preventative treatment: yes: the areas where the plants have sprouted despite the preventative treatment; no: the areas where the preventative treatment made it possible to prevent the sprouting of the identified plants; settings: for Plants sprouted despite the preventative treatment: soil sprinkling
Procedure: as §7

Bindweed = experiment: as above; design: key to Plants sprouted despite the preventative treatment: yes: the areas where the plants have sprouted despite the preventative treatment; no: the areas where the preventative treatment made it possible to prevent the sprouting of the identified plants; settings: for Plants sprouted despite the preventative treatment: soil sprinkling
Procedure: as §7

Grass [2] = experiment: as above; design: key to Plants sprouted despite the preventative treatment: yes: the areas where the plants have sprouted despite the preventative treatment; no: the areas where the preventative treatment made it possible to prevent the sprouting of the identified plants; settings: for Plants sprouted despite the preventative treatment: soil sprinkling
Procedure: as §7

Dandelion seeds = experiment: Preventative activity (anti-germination), seeds on agar in Petri dish; settings: 0.35 g sprayed (benzyl alcohol pure, 700 L/Ha; glyphosate diluted at 0.5%)
Mustard = experiment: Early post-emergence herbicide activity, visual rating of symptoms; settings: cotyledon stage, average of 5 pots
Description: The soil is composed of 50% agricultural soil and 50% vermiculite.
Mustard seeds are sown in a Petri dish up to the stage of emergence of the radicle. The pre-germinated seeds are placed 1 cm deep in 8 cm×8 cm pots at a rate of 5 seeds per pot and 5 pots/repetitions per condition (treated plants and control plants).
On appearance of the cotyledons, the treatment is applied using a spraying bench simulating an outdoor treatment.
The spraying volume of 200 L/ha.
An untreated control (water alone) is added.
The cultivation conditions are 15° C. during the night/20° C. during the day with a photoperiod of 14 hours (light intensity of approximately 300 μmol/s/m^2).
A visual rating of the symptoms at 1, 3 and 7 days after treatment is carried out for the treated plants.
Each value is an average value calculated over 5 pots per condition.

Compound: OCc1ccccc1 [benzyl alcohol]
- A: systemic effectiveness time (whole plant affected) (Hypoestes): at 96 h
- B: collapsing (score and time): time to pass from score 5 (T0) to score 1 (Hypoestes): 120 h
- C: colour intensity (score and time): time to pass from score 5 (T0) to score 1 (Hypoestes): 120 h
- D: diameter (score and time): time to pass from score 5 (T0) to score 1 (Hypoestes): 144 h
- A: systemic effectiveness time (whole plant affected) (Grass [1]): at 96 h
- B: collapsing (score and time): time to pass from score 5 (T0) to score 1 (Grass [1]): 144 h
- C: colour intensity (score and time): time to pass from score 5 (T0) to score 1 (Grass [1]): 120 h
- D: diameter (score and time): time to pass from score 5 (T0) to score 1 (Grass [1]): 168 h
- A: systemic effectiveness time (whole plant affected) (White petunia): at 24 h
- B: collapsing (score and time): time to pass from score 5 (T0) to score 1 (White petunia): 48 h
- C: colour intensity (score and time): time to pass from score 5 (T0) to score 1 (White petunia): 48 h
- D: diameter (score and time): time to pass from score 5 (T0) to score 1 (White petunia): 48 h
- A: systemic effectiveness time (whole plant affected) (Carnation): at 72 h
- B: collapsing (score and time): time to pass from score 5 (T0) to score 1 (Carnation): 86 h
- C: colour intensity (score and time): time to pass from score 5 (T0) to score 1 (Carnation): 96 h
- D: diameter (score and time): time to pass from score 5 (T0) to score 1 (Carnation): 120 h
- A: systemic effectiveness time (whole plant affected) (Osteospermum): at 96 h
- B: collapsing (score and time): time to pass from score 5 (T0) to score 1 (Osteospermum): 144 h
- C: colour intensity (score and time): time to pass from score 5 (T0) to score 1 (Osteospermum): 120 h
- D: diameter (score and time): time to pass from score 5 (T0) to score 1 (Osteospermum): 144 h
- A: systemic effectiveness time (whole plant affected) (Horned pansy): at 120 h
- B: collapsing (score and time): time to pass from score 5 (T0) to score 1 (Horned pansy): 168 h
- C: colour intensity (score and time): time to pass from score 5 (T0) to score 1 (Horned pansy): 144 h
- D: diameter (score and time): time to pass from score 5 (T0) to score 1 (Horned pansy): 168 h
- Quantity of benzyl alcohol (sprinkling) that prevents sprouting (Couch grass; preventative soil sprinkling): 130 L/Ha
- Plants sprouted despite the preventative treatment (Couch grass; 50 L/ha pure benzyl alcohol): yes
- Plants sprouted despite the preventative treatment (Couch grass; 70 L/Ha pure benzyl alcohol): yes
- Plants sprouted despite the preventative treatment (Couch grass; 110 L/Ha pure benzyl alcohol): yes
- Plants sprouted despite the preventative treatment (Couch grass; 120 L/Ha pure benzyl alcohol): yes
- Plants sprouted despite the preventative treatment (Couch grass; 130 L/Ha pure benzyl alcohol): no
- Plants sprouted despite the preventative treatment (Couch grass; 150 L/Ha pure benzyl alcohol): no
- Quantity of benzyl alcohol (sprinkling) that prevents sprouting (Thistle; preventative soil sprinkling): 110 L/Ha
- Plants sprouted despite the preventative treatment (Thistle; 50 L/ha pure benzyl alcohol): yes
- Plants sprouted despite the preventative treatment (Thistle; 70 L/Ha pure benzyl alcohol): yes
- Plants sprouted despite the preventative treatment (Thistle; 110 L/Ha pure benzyl alcohol): no
- Plants sprouted despite the preventative treatment (Thistle; 120 L/Ha pure benzyl alcohol): no
- Plants sprouted despite the preventative treatment (Thistle; 130 L/Ha pure benzyl alcohol): no
- Plants sprouted despite the preventative treatment (Thistle; 150 L/Ha pure benzyl alcohol): no
- Quantity of benzyl alcohol (sprinkling) that prevents sprouting (Bindweed; preventative soil sprinkling): 110 L/Ha
- Plants sprouted despite the preventative treatment (Bindweed; 50 L/ha pure benzyl alcohol): yes
- Plants sprouted despite the preventative treatment (Bindweed; 70 L/Ha pure benzyl alcohol): yes
- Plants sprouted despite the preventative treatment (Bindweed; 110 L/Ha pure benzyl alcohol): no
- Plants sprouted despite the preventative treatment (Bindweed; 120 L/Ha pure benzyl alcohol): no
- Plants sprouted despite the preventative treatment (Bindweed; 130 L/Ha pure benzyl alcohol): no
- Plants sprouted despite the preventative treatment (Bindweed; 150 L/Ha pure benzyl alcohol): no
- Quantity of benzyl alcohol (sprinkling) that prevents sprouting (Grass [2]; preventative soil sprinkling): 120 L/Ha
- Plants sprouted despite the preventative treatment (Grass [2]; 50 L/ha pure benzyl alcohol): yes
- Plants sprouted despite the preventative treatment (Grass [2]; 70 L/Ha pure benzyl alcohol): yes
- Plants sprouted despite the preventative treatment (Grass [2]; 110 L/Ha pure benzyl alcohol): yes
- Plants sprouted despite the preventative treatment (Grass [2]; 120 L/Ha pure benzyl alcohol): no
- Plants sprouted despite the preventative treatment (Grass [2]; 130 L/Ha pure benzyl alcohol): no
- Plants sprouted despite the preventative treatment (Grass [2]; 150 L/Ha pure benzyl alcohol): no
- Percentage of germination at 11 days (Dandelion seeds): 0%
- Visual rating of the symptoms (0 = similar to control, 100 = dead plant) (Mustard; 30 L/ha active material, 1 day after treatment): 3
- Visual rating of the symptoms (0 = similar to control, 100 = dead plant) (Mustard; 30 L/ha active material, 3 days after treatment): 21
- Visual rating of the symptoms (0 = similar to control, 100 = dead plant) (Mustard; 30 L/ha active material, 7 days after treatment): 81
- Visual rating of the symptoms (0 = similar to control, 100 = dead plant) (Mustard; 40 L/ha active material, 1 day after treatment): 59
- Visual rating of the symptoms (0 = similar to control, 100 = dead plant) (Mustard; 40 L/ha active material, 3 days after treatment): 82
- Visual rating of the symptoms (0 = similar to control, 100 = dead plant) (Mustard; 40 L/ha active material, 7 days after treatment): 93
- Visual rating of the symptoms (0 = similar to control, 100 = dead plant) (Mustard; 60 L/ha active material, 1 day after treatment): 63
- Visual rating of the symptoms (0 = similar to control, 100 = dead plant) (Mustard; 60 L/ha active material, 3 days after treatment): 92
- Visual rating of the symptoms (0 = similar to control, 100 = dead plant) (Mustard; 60 L/ha active material, 7 days after treatment): 100
